Here are results for 13 compounds from patent US12157746B2, “Tetrahydro-1H-pyrazino[2,1-a]isoindolylquinoline compounds for the treatment of autoimmune disease” (F. HOFFMANN-LA ROCHE AG, priority 2018, dated 2024).

In data set [1] the target is T1, human TLR9 (Homo sapiens, UniProt Q9NR96).
T1 sequence (Q9NR96 26-1032): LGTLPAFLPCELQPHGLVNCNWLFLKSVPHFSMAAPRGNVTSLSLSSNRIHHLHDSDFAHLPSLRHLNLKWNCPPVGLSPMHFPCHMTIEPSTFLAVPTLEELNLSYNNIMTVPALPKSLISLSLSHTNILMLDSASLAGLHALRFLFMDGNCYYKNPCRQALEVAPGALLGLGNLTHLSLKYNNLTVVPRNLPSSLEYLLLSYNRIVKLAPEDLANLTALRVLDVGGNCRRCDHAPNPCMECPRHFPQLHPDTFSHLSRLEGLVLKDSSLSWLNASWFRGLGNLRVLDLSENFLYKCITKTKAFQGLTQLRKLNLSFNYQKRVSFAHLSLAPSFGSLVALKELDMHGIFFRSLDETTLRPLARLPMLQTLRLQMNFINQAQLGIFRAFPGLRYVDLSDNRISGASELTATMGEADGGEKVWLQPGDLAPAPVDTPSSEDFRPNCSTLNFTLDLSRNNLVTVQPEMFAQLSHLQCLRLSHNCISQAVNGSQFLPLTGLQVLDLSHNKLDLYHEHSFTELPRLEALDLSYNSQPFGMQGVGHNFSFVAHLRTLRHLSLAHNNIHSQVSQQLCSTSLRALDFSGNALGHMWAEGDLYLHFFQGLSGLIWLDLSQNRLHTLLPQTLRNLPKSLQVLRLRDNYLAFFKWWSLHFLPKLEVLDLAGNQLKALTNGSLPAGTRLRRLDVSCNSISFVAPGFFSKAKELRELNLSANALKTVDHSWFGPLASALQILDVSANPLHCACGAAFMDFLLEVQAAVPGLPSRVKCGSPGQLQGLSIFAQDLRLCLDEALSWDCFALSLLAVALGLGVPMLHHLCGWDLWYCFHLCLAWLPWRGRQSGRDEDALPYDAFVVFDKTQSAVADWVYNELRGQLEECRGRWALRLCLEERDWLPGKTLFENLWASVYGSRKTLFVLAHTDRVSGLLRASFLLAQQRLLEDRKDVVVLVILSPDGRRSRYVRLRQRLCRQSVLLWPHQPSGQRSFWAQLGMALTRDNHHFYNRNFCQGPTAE
The experiment in a line: HEK293-Blue-hTLR-9 cells assay. It counts as cell-based. Conditions: HEK293-Blue-hTLR9 cells, ODN2006 stimulation, 20 hrs, SEAP reporter; read-out: HEK/hTLR9 IC50. The essentials: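 Antagonist mode in HEK293-Blue hTLR9 reporter cells (SEAP under NF-κB/AP-1 sites), stimulated with ODN2006 added from a 20 uM solution. Serially diluted compound (1% DMSO final) was incubated 20 hrs at 37° C. Supernatant SEAP was developed with QUANTI-Blue for 2 h at 37° C and read at 620˜655 nm.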

Data set [2] in a line: Human microsomal stability assay. It counts as in vitro ADME. Conditions: human liver microsomes 0.5 mg/mL, 37° C., pH 7.4, NADPH regenerating system, 0-30 minutes. In short, it runs like this:
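Human liver microsomes (0.5 mg/mL) with […] compound in 100 mM potassium phosphate, pH 7.4, 37° C; reaction started with NADPH regenerating system after 10 min preincubation. Parent remaining at 0–30 min quantified by LC-MS/MS; clearance binned low (<7.0), medium (7.0-16.2) or high (16.2-23.2) mL/min/kg.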
Background: Liver microsomes are vesicles of endoplasmic reticulum, rich in cytochrome P450 enzymes.

For `C[C@@H]1CN(c2ccc(C#N)c3ncccc23)C[C@@H]2c3ccc(C(=O)N4CCC(C)(N)CC4)cc3CN12` [Example 88, 5-[(4R,10bS)-8-(4-amino-4-methyl-piperidine-1-carbonyl)-4-methyl-3,4,6,10b-tetrahydro-1H-pyrazino[2,1-a]isoindol-2-yl]quinoline-8-carbonitrile], in data set [1], the IC50 was determined as 165 nM. In addition, the “CL (h)” value in data set [2] turned out to be 6.2 mL/min/kg.

`CO[C@@H]1CNC[C@@H]1Nc1ccc2c(c1)CN1[C@H](C)CN(c3ccc(C#N)c4ncccc34)C[C@H]21` [Example 60, 5-[(4R,10bS)-8-[[(3S,4R)-4-methoxypyrrolidin-3-yl]amino]-4-methyl-3,4,6,10b-tetrahydro-1H-pyrazino[2,1-a]isoindol-2-yl]quinoline-8-carbonitrile]: in data set [1], the IC50 was 113 nM. Besides, in data set [2], the “CL (h)” value worked out at 7.4 mL/min/kg.

With `C[C@@H]1CN(c2ccc(C#N)c3ncccc23)C[C@@H]2c3ccc(NCC4(F)CNC4)cc3CN12` [Example 69, 5-[(4R,10bS)-8-[(3-fluoroazetidin-3-yl)methylamino]-4-methyl-3,4,6,10b-tetrahydro-1H-pyrazino[2,1-a]isoindol-2-yl]quinoline-8-carbonitrile], the IC50 in data set [1] was 171 nM. Moreover, the “CL (h)” value in data set [2] came out at 8.4 mL/min/kg.

On to `C[C@@H]1CN(c2ccc(C#N)c3ncccc23)C[C@@H]2c3ccc(NCCN4CC[C@H](O)C4)cc3CN12` [Example 68, 5-[(4R,10bS)-8-[2-[(3S)-3-hydroxypyrrolidin-1-yl]ethylamino]-4-methyl-3,4,6,10b-tetrahydro-1H-pyrazino[2,1-a]isoindol-2-yl]quinoline-8-carbonitrile], for which the IC50 in data set [1] came out at 73.5 nM. Further, the “CL (h)” value in data set [2] is 7.9 mL/min/kg.

For `CO[C@H]1CNC[C@H]1Nc1ccc2c(c1)CN1[C@H](C)CN(c3ccc(C#N)c4ncccc34)C[C@H]21` [Example 61, 5-[(4R,10bS)-8-[[(3R,4S)-4-methoxypyrrolidin-3-yl]amino]-4-methyl-3,4,6,10b-tetrahydro-1H-pyrazino[2,1-a]isoindol-2-yl]quinoline-8-carbonitrile], the IC50 in data set [1] worked out at 93 nM. Further, in data set [2], the “CL (h)” value was determined as 7.3 mL/min/kg.

Consider `N#Cc1ccc(N2CCN3Cc4cc(N5CCNCC5)ccc4C3C2)c2cccnc12` (centres unmarked) [Example 3, 5-(8-piperazin-1-yl-3,4,6,10b-tetrahydro-1H-pyrazino[2,1-a]isoindol-2-yl)quinoline-8-carbonitrile], for which the IC50 in data set [1] was 87.7 nM. Besides, the “CL (h)” value in data set [2] came out at 6.2 mL/min/kg.

Take `C[C@@H]1CN(c2ccc(C#N)c3ncccc23)C[C@@H]2c3ccc(N[C@@H]4CCCNC4)cc3CN12` [Example 65, 5-[(4R,10bS)-4-methyl-8-[[(3R)-3-piperidyl]amino]-3,4,6,10b-tetrahydro-1H-pyrazino[2,1-a]isoindol-2-yl]quinoline-8-carbonitrile]: in data set [1], the IC50 is 95.8 nM. Also, the “CL (h)” value in data set [2] came out at 6.2 mL/min/kg.

`C[C@@H]1CN(c2ccc(C#N)c3ncccc23)C[C@@H]2c3ccc(N4CCNCC4)cc3CN12` [Example 1, 5-[(4R,10bS)-4-methyl-8-piperazin-1-yl-3,4,6,10b-tetrahydro-1H-pyrazino[2,1-a]isoindol-2-yl]quinoline-8-carbonitrile]: the IC50 in data set [1] was 106 nM. Also, the “CL (h)” value in data set [2] stood at 6.8 mL/min/kg.

Turning to `C[C@@H]1CN(c2ccc(Cl)c3ncccc23)C[C@@H]2c3ccc(N[C@H]4CNC[C@H]4F)cc3CN12` [Example 79, (4R,10b)-2-(8-chloro-5-quinolyl)-N-[(3S,4R)-4-fluoropyrrolidin-3-yl]-4-methyl-3,4,6,10b-tetrahydro-1H-pyrazino[2,1-a]isoindol-8-amine], the IC50 in data set [1] is 113 nM. For the same compound, the “CL (h)” value in data set [2] worked out at 6.2 mL/min/kg.

Regarding `Cc1ccc(N2C[C@@H](C)N3Cc4cc(N[C@H]5CNC[C@H]5F)ccc4[C@H]3C2)c2cccnc12` [Example 75, (4R,10bS)—N-[(3S,4R)-4-fluoropyrrolidin-3-yl]-4-methyl-2-(8-methyl-5-quinolyl)-3,4,6,10b-tetrahydro-1H-pyrazino[2,1-a]isoindol-8-amine], the IC50 in data set [1] is 203 nM. Moreover, the “CL (h)” value in data set [2] amounted to 6.2 mL/min/kg.

On to `C[C@@H]1CN(c2ccc(C#N)c3ncccc23)C[C@@H]2c3cc(F)c(N4CC5CNCC(C4)O5)cc3CN12` [Example 85, 5-[(4R,10bS)-9-fluoro-4-methyl-8-(9-oxa-3,7-diazabicyclo[3.3.1]nonan-3-yl)-3,4,6,10b-tetrahydro-1H-pyrazino[2,1-a]isoindol-2-yl]quinoline-8-carbonitrile], for which the IC50 in data set [1] was 151 nM. Also, the “CL (h)” value in data set [2] is 7.8 mL/min/kg.

As for `C[C@H]1CN(c2ccc(C#N)c3ncccc23)C[C@H]2c3ccc(N4CCNCC4)cc3CN12` [Example 2, 5-[(4S,10bR)-4-methyl-8-piperazin-1-yl-3,4,6,10b-tetrahydro-1H-pyrazino[2,1-a]isoindol-2-yl]quinoline-8-carbonitrile], the IC50 in data set [1] came out at 125 nM. Also, the “CL (h)” value in data set [2] stood at 6.8 mL/min/kg.

Take `CO[C@H]1CNC[C@@H]1Nc1ccc2c(c1)CN1[C@H](C)CN(c3ccc(C#N)c4ncccc34)C[C@H]21` [Example 62, 5-[(4R,10bS)-8-[[(3S,4S)-4-methoxypyrrolidin-3-yl]amino]-4-methyl-3,4,6,10b-tetrahydro-1H-pyrazino[2,1-a]isoindol-2-yl]quinoline-8-carbonitrile]: the IC50 in data set [1] amounted to 84.5 nM. Besides, the “CL (h)” value in data set [2] was found to be 7.5 mL/min/kg.
